Experimental findings from ChEMBL document CHEMBL4834432, “Diverse Prenylated Bibenzyl Enantiomers from the Chinese Liverwort Radula apiculata and Their Cytotoxic Activities” (J Nat Prod, 2021) are described below.

Counter-ions that a name gives are not always drawn. Active and inactive are the calls of the source. The rule behind the calls is not given here.

As usually defined, the IC50 is the concentration at which inhibition is half-maximal.

Assay [1] deals with PC-3. The assay can be described thus: Cytotoxicity against human PC-3 cells assessed as cell viability inhibition for 48 hrs by MTT assay. The following applies: PC-3, 48 h. It counts as functional, cell-based. (In general: Tetrazolium dyes change colour on reduction, which living cells bring about.)
For assay [2], the system named is A549. The assay can be described thus: Cytotoxicity against human A549 cells assessed as cell viability inhibition for 48 hrs by MTT assay. The following applies: A549, 48 h. It counts as functional, cell-based.
The subject of assay [3] is MCF7. The assay can be described thus: Cytotoxicity against human MCF-7 cells assessed as cell viability inhibition for 48 hrs by MTT assay. It counts as functional, cell-based. The following applies: MCF7, 48 h.
Assay [4] deals with NCI-H1299. The assay can be described thus: Cytotoxicity against human […] cells assessed as cell viability inhibition for 48 hrs by MTT assay. It counts as functional, cell-based. The following applies: NCI-H1299, 48 h.
Assay [5] deals with PC-3. Briefly: Induction of apoptosis in human PC-3 cells assessed as nuclear shrinkage at 2 uM incubated for 24 hrs by DAPI staining analysis. It counts as functional, cell-based.
Assay [6] relates to PC-3. Briefly: Induction of apoptosis in human PC-3 cells assessed as granular apoptotic body formation at 2 uM incubated for 24 hrs by DAPI staining analysis. It counts as functional, cell-based.
The subject of assay [7] is PC-3. The assay can be described thus: Induction of apoptosis in human PC-3 cells assessed as early apoptotic cells at 2 uM incubated for 24 hrs by annexin V/propidium iodide based flow cytometry (reference value: 2.71%). It counts as functional. (In general: A flow cytometer gives signals particle by particle.)
For assay [8], the system named is PC-3. The assay can be described thus: Induction of apoptosis in human PC-3 cells assessed as early apoptotic cells at 4 uM incubated for 24 hrs by annexin V/propidium iodide based flow cytometry (reference value: 2.71%). It counts as functional.
For assay [9], the system named is PC-3. Briefly: Induction of apoptosis in human PC-3 cells assessed as early apoptotic cells at 6 uM incubated for 24 hrs by annexin V/propidium iodide based flow cytometry (reference value: 2.71%). It counts as functional.
Assay [10] has as its system PC-3. Briefly: Induction of apoptosis in human PC-3 cells assessed as late apoptotic cells at 2 uM incubated for 24 hrs by annexin V/propidium iodide based flow cytometry (reference value: 3.89%). It counts as functional.
Assay [11] deals with PC-3. Briefly: Induction of apoptosis in human PC-3 cells assessed as late apoptotic cells at 4 uM incubated for 24 hrs by annexin V/propidium iodide based flow cytometry (reference value: 3.89%). It counts as functional.
The subject of assay [12] is PC-3. Briefly: Induction of apoptosis in human PC-3 cells assessed as late apoptotic cells at 6 uM incubated for 24 hrs by annexin V/propidium iodide based flow cytometry (reference value: 3.89%). It counts as functional.
Assay [13] deals with PC-3. Briefly: Induction of apoptosis in human PC-3 cells assessed as necrotic cells at 2 uM incubated for 24 hrs by annexin V/propidium iodide based flow cytometry (reference value: 1.93%). It counts as functional.
The subject of assay [14] is PC-3. The assay can be described thus: Induction of apoptosis in human PC-3 cells assessed as necrotic cells at 4 uM incubated for 24 hrs by annexin V/propidium iodide based flow cytometry (reference value: 1.93%). It counts as functional.
The subject of assay [15] is PC-3. Briefly: Induction of apoptosis in human PC-3 cells assessed as necrotic cells at 6 uM incubated for 24 hrs by annexin V/propidium iodide based flow cytometry (reference value: 1.93%). It counts as functional.
Assay [16] relates to PC-3. Briefly: Induction of apoptosis in human PC-3 cells assessed as mitochondrial membrane potential loss at 2 uM incubated for 24 hrs by JC1 staining based flow cytometric analysis (reference value: 100%). It counts as functional, cell-based.
Assay [17] has as its system PC-3. The assay can be described thus: Induction of apoptosis in human PC-3 cells assessed as mitochondrial membrane potential loss at 4 uM incubated for 24 hrs by JC1 staining based flow cytometric analysis (reference value: 100%). It counts as functional, cell-based.
In assay [18] the test system is PC-3. The assay can be described thus: Induction of apoptosis in human PC-3 cells assessed as mitochondrial membrane potential loss at 6 uM incubated for 24 hrs by JC1 staining based flow cytometric analysis (reference value: 100%). It counts as functional, cell-based.
For assay [19], the system named is PC-3. The assay can be described thus: Induction of apoptosis in human PC-3 cells assessed as increase in Bax protein level incubated for 24 hrs by Western blot analysis. It counts as functional, cell-based. The following applies: dose 2-6 µM.
Assay [20] has as its system PC-3. The assay can be described thus: Induction of apoptosis in human PC-3 cells assessed as increase in cleaved caspase-9 level at 2 to 6 uM incubated for 24 hrs by Western blot analysis. It counts as functional, cell-based. To be noted: dose 2-6 µM.
For assay [21], the system named is PC-3. The assay can be described thus: Induction of apoptosis in human PC-3 cells assessed as increase in cleaved PARP level at 2 to 6 uM incubated for 24 hrs by Western blot analysis. It counts as functional, cell-based. The following applies: dose 2-6 µM. (In western blotting, separated proteins are transferred to a membrane and probed.)

Regarding `CC(C)=CCc1c(O)cc2c(c1CCc1ccccc1)C1(C(=O)O2)c2c(CCc3ccccc3)cc(O)cc2OC1(C)C` (racemic), the IC50 in assay [1] stood at 1.5 µM; in [2], 2.8 µM; in [3] it was 3.6 µM; in assay [4] it was 6.9 µM.

Take `CC1=CC2c3c(CCc4ccccc4)cc(O)cc3OC(c3c(O)cc(O)cc3CCc3ccccc3)C2C(C)(C)C1` (racemic): the IC50 in assay [1] was determined as 8.2 µM; in [3], 9.8 µM.

For `CC12CC(c3c(CCc4ccccc4)cc(O)cc3O1)C1C(C2)c2c(CCc3ccccc3)cc(O)cc2OC1(C)C` (racemic), the IC50 was found to be 5.4 µM in [1], 5.8 µM in assay [2], 4.6 µM in [3] and 7.2 µM in assay [4].

For the molecule `CC1(C)C=Cc2c(cc3c(c2CCc2ccccc2)C2(C(=O)O3)c3c(CCc4ccccc4)cc(O)cc3OC2(C)C)O1` (racemic), the IC50 in [1] amounted to 1.4 µM; in [2], 2.6 µM; in [3] it was 5.4 µM; in [4], 5.8 µM.

For `COc1cccc2c1C(=O)c1c(O)c3c(c(O)c1C2=O)C[C@@](O)(C(=O)CO)C[C@@H]3O[C@H]1C[C@H](N)[C@H](O)[C@H](C)O1` [DOXORUBICIN HYDROCHLORIDE], the IC50 in [1] was 0.4 µM; in assay [2] it was 1.2 µM; in [4] it was 4.7 µM.

`CC1(C)Oc2cc(O)cc(CCc3ccccc3)c2C2=C1O[C@@H]1c3c(CCc4ccccc4)cc(O)cc3OC(C)(C)[C@H]21`: the IC50 in assay [1] was 3.2 µM; in assay [2] it was 3.6 µM; in assay [3] it was 4.5 µM; in assay [4], 6.2 µM.

As to `CC1(C)Oc2cc(O)cc(CCc3ccccc3)c2C2=C1O[C@H]1c3c(CCc4ccccc4)cc(O)cc3OC(C)(C)[C@@H]21`, the IC50 in assay [1], in assay [2], in assay [3] and in assay [4] was over 10 µM throughout.

Consider `CC1(C)Oc2cc(O)cc(CCc3ccccc3)c2C(C2=Cc3c(CCc4ccccc4)cc(O)cc3OC2(C)C)C1=O` (racemic), for which the IC50 is 4.1 µM in [1], 4.5 µM in [2], 4.9 µM in assay [3] and 6.4 µM in [4].

Turning to `CC1(C)Oc2cc(O)cc(CCc3ccccc3)c2C2=C1OC1c3c(CCc4ccccc4)cc(O)cc3OC(C)(C)C21` (racemic), the IC50 in assay [1] worked out at 3.4 µM; in assay [2], 3.7 µM; in assay [3] it was 5 µM; in assay [4], 6.6 µM. The result in assay [5], in assay [6], in assay [16], in assay [17], in assay [18] and in assay [19] was Active. Also, the result in assay [20] and in assay [21] was Active. Also, the Activity in [7] is 2.65%; in assay [8] it was 1.4%; in [9], 1.82%; in assay [10], 5.68%; in assay [11], 7.81%; in assay [12], 60.74%. In addition, the Activity in [13] stood at 4.12%; in [14], 2.55%; in assay [15] it was 18.81%.

For `CC1(C)C=Cc2c(CCc3ccccc3)cc(O)c(C3CC(C)(C)Oc4cc(O)cc(CCc5ccccc5)c43)c2O1` (racemic), the IC50 turned out to be 8.2 µM in [1], 6.5 µM in assay [2], 5.7 µM in [3] and 8.2 µM in [4].

For the molecule `CC1(C)Oc2cc(O)cc(CCc3ccccc3)c2C2OC3c4c(CCc5ccccc5)cc(O)cc4OC(C)(C)C3C21` (racemic), the IC50 was found to be 3.5 µM in [1], 3.1 µM in assay [2], 5.8 µM in assay [3] and 6.7 µM in [4].
